Data on 15 compounds can be found in patent US20240002395A1, “COMPOUNDS AND THEIR USE FOR TREATING NEUROPATHIC PAIN” (The Johns Hopkins University, priority 2020, published 2024).

Some results are limits rather than exact numbers.

Tested on in the first data set: not given
Test: not given
Conditions: not given
A word on the melting point: it is the temperature, or range, at which the solid turns liquid. Take `CC(C)(C)c1sc2ncnc(OC3CCCCC3)c2c1-c1ccc(Cl)c(Cl)c1` [Compound 7aa, 6-tert-butyl-4-(cyclohexyloxy)-5-(3,4-dichlorophenyl)thieno[2,3-d]pyrimidine]: the melting point was found to be 121 °C. Consider `CC(C)(C)c1sc2ncnc(OC3CC4CCC3C4)c2c1-c1ccc(Cl)c(Cl)c1` (centres unmarked) [Compound 7ad, 4-(bicyclo[2.2.1]heptan-2-yloxy)-6-tert-butyl-5-(3,4-dichlorophenyl)thieno[2,3-d]pyrimidine], for which the melting point amounted to 152 °C. The same measure, in the same setting: the result for `CC(C)(C)c1sc2ncnc(Oc3ccccc3F)c2c1-c1ccc(F)c(F)c1` [Compound 7aj, 6-tert-butyl-5-(3,4-difluorophenyl)-4-(2-fluorophenoxy)thieno[2,3-d]pyrimidine] reads 171 °C; that for `COc1ncccc1Oc1ncnc2sc(C(C)(C)C)c(-c3ccc(Cl)c(Cl)c3)c12` [Compound 7i, 6-tert-butyl-5-(3,4-dichlorophenyl)-4-(2-methoxypyridin-3-yloxy)thieno[2,3-d]pyrimidine], 173 °C.

For a further data set, the target named is T1, human MrgprX1 (Homo sapiens, UniProt Q96LB2).
T1 construct: expressed in transfected cells
T1 sequence (Q96LB2 whole entry): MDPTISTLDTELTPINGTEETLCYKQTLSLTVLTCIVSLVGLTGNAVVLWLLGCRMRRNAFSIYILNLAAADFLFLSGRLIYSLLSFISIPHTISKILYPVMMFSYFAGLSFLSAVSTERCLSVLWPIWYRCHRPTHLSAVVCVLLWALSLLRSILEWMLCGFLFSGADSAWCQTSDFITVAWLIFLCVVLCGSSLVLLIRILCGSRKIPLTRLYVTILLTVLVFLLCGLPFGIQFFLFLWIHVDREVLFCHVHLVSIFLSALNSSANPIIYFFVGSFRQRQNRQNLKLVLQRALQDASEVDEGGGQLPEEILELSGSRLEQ
As to the kind of experiment: MrgprX1 positive allosteric modulator (PAM) calcium FLIPR assay in HEK293 cells. In kind it is cell-based. The note with it: PAM activity in presence of EC20 concentration of BAM8-22; HEK293 cells stably transfected with human MrgprX1. As for the experimental part:
HEK293 cells stably transfected with human MrgprX1 were plated onto poly-D-lysine-coated, black-walled, 96-well plates at a seeding density of 12,000 cells/well and grown for two days. On the day of the experiment, cells were incubated with Fluo-4 AM 2 μM, pluronic acid 0.04% and Trypan Red 1% in HBSS (pH 7.4, 100 μL) for 1 h at 37° C. For each different passage of cells, a BAM8-22 dose response was first conducted and the BAM8-22 EC20 determined. Test compounds were then dissolved and serially diluted in DMSO, further diluted with Trypan Red (1%)-containing HBSS (50 μL) and added to cells (0.33% DMSO concentration by volume) to first monitor for agonist activity. After 2.5 min, BAM8-22 at 4-fold EC20 (50 μL) was added to cells (0.25% DMSO concentration by volume) and the cells imaged on the FLIPR for an additional 2 minutes to monitor the test compounds for PAM activity. Finally, data were normalized to fluorescence signals obtained from 250 nM of BAM8-22 (maximum) and BAM8-22 at its EC20 concentration (minimum). EC50 of a test compound was defined as the concentration required to provoke a response halfway between the minimum and maximum response in the presence of EC20 concentration of BAM8-22.
One may read the EC50 as the concentration at which the effect is half-maximal. With `CC1CCCCC1Oc1ncnc2sc(C(C)(C)C)c(-c3ccc(Cl)c(Cl)c3)c12` (mixture of isomers) [Compound 7ac, 6-tert-butyl-5-(3,4-dichlorophenyl)-4-(2-methylcyclohexyloxy)thieno[2,3-d]pyrimidine], the EC50 was 100 nM. Regarding `Cc1ccccc1Oc1ncnc2oc(-c3ccccc3)cc12` [B, 6-Phenyl-4-(o-tolyloxy)furo[2,3-d]pyrimidine, reference compound], the EC50 is 1000 nM.

In the case of `Cc1cccc(Oc2ncnc3oc(-c4ccccc4)cc23)c1C` [C, 4-(2,3-Dimethylphenoxy)-6-phenylfuro[2,3-d]pyrimidine, reference compound], the EC50 was 70000 nM. On the same count and under the same terms, next, `CC(C)(C)c1sc2ncnc(OC3CCCCC3)c2c1-c1ccc(Cl)c(Cl)c1` [Compound 7aa, 6-tert-butyl-4-(cyclohexyloxy)-5-(3,4-dichlorophenyl)thieno[2,3-d]pyrimidine]: 100 nM; `CN1CCCC(Oc2ncnc3sc(C(C)(C)C)c(-c4ccc(Cl)c(Cl)c4)c23)C1` (centres unmarked) [Compound 7ab, 6-tert-butyl-5-(3,4-dichlorophenyl)-4-(1-methylpiperidin-3-yloxy)thieno[2,3-d]pyrimidine]: 6000 nM. As to `CC(C)(C)c1sc2ncnc(OC3CC4CCC3C4)c2c1-c1ccc(Cl)c(Cl)c1` (centres unmarked) [Compound 7ad, 4-(bicyclo[2.2.1]heptan-2-yloxy)-6-tert-butyl-5-(3,4-dichlorophenyl)thieno[2,3-d]pyrimidine], the EC50 was determined as 300 nM. As to `CC(C)(C)c1sc2ncnc(OC3CCCCCC3)c2c1-c1ccc(Cl)c(Cl)c1` [Compound 7ae, 6-tert-butyl-4-(cycloheptyloxy)-5-(3,4-dichlorophenyl)thieno[2,3-d]pyrimidine], the EC50 was found to be 400 nM. Same read-out and setting: the result for `CCOC(=O)c1c(C(C)(C)C)sc2ncnc(Oc3c(F)cccc3OC(F)(F)F)c12` [Compound 7be, Ethyl 6-(tert-butyl)-4-(2-fluoro-6-(trifluoromethoxy)phenoxy)thieno[2,3 d]pyrimidine-5-carboxylate] reads 60 nM; that for `CC1CCCN1c1c(C(C)(C)C)sc2ncnc(Oc3c(F)cccc3OC(F)(F)F)c12` (centres unmarked) [Compound 7bg, 6-(tert-butyl)-4-(2-fluoro-6-(trifluoromethoxy)phenoxy)-5-(2-methylpyrrolidin-1-yl)thieno[2,3-d]pyrimidine], 70 nM; that for `CC(C)(C)c1sc2ncnc(Oc3ccc([N+](=O)[O-])cc3OC(F)(F)F)c2c1-c1ccc(Cl)c(Cl)c1` [Compound 7f, 6-tert-butyl-5-(3,4-dichlorophenyl)-4-(4-nitro-2-(trifluoromethoxy)phenoxy)thieno[2,3-d]pyrimidine], above 100000 nM. As to `CC(C)(C)c1sc2ncnc(Oc3ccccc3C#N)c2c1-c1ccc(Cl)c(Cl)c1` [Compound 7v, 2-(6-tert-butyl-5-(3,4-dichlorophenyl)thieno[2,3-d]pyrimidin-4-yloxy)benzonitrile], the EC50 was determined as 500 nM. Same read-out and setting: the result for `CN(C)C(=O)COc1ncnc2scc(-c3ccc(F)cc3)c12` [Compound A, 2-((5-(4-Fluorophenyl)thieno[2,3-d]pyrimidin-4-yl)oxy)-N,N-dimethylacetamide, reference compound] reads above 100000 nM; that for `Cc1ccc(Oc2ncnc3sccc23)cc1` [E, 4-(p-Tolyloxy)thieno[2,3-d]pyrimidine, reference compound], 900 nM.
